Test results reported in ChEMBL document CHEMBL1134011, “LY294002-geldanamycin heterodimers as selective inhibitors of the PI3K and PI3K-related family” (Bioorg Med Chem Lett, 2001).

Columns and labels:
[1] = target: T1, DNA-dependent protein kinase catalytic subunit (Homo sapiens, UniProt P78527); test: Inhibition of DNA dependent protein kinase activity without hsp90 alpha protein
[2] = Inhibition of Phoshoinositol 3 kinase from MCF-7 breast cancer cells; assay type: cell-based, Homo sapiens; conditions: mcf7
[3] = target: Heat shock protein HSP 90-alpha (Homo sapiens, UniProt P07900); test: Competitive binding towards Heat shock protein HSP 90-alpha
[4] = Inhibition of Phoshoinositol 3 kinase; set-up: species or system Homo sapiens
[5] = target: T1, DNA-dependent protein kinase catalytic subunit; test: Inhibition of DNA dependent protein kinase with hsp90 alpha protein

T1 sequence (P78527 whole entry): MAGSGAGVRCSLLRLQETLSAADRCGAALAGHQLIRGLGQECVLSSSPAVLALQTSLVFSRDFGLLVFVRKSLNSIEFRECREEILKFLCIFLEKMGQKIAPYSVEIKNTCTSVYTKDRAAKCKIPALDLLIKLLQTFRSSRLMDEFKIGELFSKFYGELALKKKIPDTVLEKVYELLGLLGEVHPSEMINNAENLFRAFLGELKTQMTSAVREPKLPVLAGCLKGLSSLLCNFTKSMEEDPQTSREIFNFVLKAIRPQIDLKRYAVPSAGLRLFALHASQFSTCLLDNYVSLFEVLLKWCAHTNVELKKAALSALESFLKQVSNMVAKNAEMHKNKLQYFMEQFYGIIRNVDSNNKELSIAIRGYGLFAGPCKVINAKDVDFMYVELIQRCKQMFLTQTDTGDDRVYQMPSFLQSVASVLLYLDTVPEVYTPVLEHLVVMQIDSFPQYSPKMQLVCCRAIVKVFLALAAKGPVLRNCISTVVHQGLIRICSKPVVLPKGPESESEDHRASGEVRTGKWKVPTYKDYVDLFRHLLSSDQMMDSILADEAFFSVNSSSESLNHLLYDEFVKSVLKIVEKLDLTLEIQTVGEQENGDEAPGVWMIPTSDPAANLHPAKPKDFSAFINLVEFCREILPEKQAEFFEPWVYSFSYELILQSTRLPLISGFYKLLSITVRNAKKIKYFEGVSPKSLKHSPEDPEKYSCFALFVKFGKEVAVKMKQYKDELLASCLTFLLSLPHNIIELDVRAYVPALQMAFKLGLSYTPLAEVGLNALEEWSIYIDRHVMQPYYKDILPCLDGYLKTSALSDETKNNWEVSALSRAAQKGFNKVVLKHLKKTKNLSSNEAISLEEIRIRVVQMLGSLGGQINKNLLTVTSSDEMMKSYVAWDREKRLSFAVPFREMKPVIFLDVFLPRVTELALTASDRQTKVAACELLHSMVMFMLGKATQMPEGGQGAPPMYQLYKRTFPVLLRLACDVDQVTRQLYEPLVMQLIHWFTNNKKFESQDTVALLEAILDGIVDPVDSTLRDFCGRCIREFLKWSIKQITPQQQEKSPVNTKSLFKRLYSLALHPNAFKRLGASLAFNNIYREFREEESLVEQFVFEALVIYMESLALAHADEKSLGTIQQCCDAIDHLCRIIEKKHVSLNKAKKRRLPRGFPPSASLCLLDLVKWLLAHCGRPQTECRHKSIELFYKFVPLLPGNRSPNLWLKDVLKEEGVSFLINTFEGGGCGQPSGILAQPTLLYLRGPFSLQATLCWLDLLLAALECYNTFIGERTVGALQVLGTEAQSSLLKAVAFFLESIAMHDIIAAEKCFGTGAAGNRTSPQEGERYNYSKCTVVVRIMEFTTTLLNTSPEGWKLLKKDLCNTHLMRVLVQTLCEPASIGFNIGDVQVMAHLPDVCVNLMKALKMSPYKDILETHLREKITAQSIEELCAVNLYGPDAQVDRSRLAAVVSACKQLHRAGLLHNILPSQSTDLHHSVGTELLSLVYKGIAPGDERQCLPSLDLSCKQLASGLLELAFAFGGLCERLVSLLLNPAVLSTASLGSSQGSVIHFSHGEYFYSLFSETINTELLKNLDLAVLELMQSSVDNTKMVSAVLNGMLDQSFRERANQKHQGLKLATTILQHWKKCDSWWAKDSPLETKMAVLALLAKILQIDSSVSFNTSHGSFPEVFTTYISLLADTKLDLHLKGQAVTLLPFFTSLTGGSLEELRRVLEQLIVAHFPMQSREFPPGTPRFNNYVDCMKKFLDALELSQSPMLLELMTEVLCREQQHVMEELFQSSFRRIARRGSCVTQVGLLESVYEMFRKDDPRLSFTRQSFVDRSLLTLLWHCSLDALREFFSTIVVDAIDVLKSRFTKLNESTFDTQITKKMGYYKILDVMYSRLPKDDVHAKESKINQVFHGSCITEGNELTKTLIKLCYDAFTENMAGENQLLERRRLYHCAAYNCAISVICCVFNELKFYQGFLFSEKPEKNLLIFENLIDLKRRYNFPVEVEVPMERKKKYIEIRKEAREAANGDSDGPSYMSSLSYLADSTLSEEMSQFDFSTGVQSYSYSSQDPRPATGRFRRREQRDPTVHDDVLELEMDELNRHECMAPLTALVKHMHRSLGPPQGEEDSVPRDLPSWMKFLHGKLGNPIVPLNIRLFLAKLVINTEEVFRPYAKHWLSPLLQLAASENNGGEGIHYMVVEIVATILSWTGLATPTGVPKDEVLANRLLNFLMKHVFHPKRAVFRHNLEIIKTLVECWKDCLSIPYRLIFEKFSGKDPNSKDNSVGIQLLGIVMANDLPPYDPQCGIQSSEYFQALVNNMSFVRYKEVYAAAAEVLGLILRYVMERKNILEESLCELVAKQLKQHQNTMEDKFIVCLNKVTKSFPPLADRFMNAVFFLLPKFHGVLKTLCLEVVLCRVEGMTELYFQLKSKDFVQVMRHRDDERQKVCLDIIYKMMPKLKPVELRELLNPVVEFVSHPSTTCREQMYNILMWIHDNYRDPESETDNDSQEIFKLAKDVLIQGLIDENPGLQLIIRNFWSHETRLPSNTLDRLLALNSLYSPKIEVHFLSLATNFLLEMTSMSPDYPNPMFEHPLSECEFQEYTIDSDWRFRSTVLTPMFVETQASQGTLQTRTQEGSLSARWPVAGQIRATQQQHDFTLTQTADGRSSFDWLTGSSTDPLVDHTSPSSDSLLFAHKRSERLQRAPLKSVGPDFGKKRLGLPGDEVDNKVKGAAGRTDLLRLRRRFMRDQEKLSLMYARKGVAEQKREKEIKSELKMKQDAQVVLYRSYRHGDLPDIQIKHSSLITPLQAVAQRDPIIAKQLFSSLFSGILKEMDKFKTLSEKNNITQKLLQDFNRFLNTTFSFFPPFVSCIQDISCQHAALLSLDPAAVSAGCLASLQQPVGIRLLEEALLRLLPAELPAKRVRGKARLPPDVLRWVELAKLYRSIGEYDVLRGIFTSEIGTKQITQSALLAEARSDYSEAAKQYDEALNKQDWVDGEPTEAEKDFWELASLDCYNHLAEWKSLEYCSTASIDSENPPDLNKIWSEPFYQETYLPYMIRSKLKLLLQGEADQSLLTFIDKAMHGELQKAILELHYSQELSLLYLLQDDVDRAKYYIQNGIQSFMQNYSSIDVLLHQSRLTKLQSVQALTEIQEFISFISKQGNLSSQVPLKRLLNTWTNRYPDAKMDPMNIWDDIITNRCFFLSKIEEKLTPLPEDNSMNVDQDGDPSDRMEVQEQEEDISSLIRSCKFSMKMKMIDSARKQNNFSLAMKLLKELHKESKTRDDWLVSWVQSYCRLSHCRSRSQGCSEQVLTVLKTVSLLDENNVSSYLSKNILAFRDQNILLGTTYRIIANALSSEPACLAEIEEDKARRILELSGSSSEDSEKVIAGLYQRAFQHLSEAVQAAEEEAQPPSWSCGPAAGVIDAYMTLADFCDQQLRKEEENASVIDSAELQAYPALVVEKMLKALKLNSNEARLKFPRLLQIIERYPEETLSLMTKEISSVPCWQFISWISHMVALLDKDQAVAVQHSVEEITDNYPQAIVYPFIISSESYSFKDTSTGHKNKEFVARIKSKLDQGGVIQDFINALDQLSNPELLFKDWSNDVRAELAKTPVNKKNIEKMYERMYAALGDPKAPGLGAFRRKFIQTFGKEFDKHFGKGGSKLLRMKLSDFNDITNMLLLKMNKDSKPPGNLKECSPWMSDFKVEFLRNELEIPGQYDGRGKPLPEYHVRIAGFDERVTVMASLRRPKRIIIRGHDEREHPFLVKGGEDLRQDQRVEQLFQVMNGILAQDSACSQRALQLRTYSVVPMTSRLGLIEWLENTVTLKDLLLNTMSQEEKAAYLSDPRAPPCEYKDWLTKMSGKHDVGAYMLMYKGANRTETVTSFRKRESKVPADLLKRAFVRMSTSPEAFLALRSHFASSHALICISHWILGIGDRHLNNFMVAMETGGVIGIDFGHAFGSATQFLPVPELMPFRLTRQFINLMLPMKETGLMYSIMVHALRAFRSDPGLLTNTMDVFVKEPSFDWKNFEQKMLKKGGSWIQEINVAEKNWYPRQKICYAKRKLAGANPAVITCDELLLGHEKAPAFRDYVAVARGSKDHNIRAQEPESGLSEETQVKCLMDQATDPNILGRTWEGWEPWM

SMILES	IC50 [1] [µM]	IC50 [2] [µM]	EC50 [3] [µM]	IC50 [4] [µM]	IC50 [5] [µM]
CO[C@H]1/C=C\C=C(/C)C(=O)NC2=CC(=O)C(NCCCCOc3ccc4c(=O)cc(N5CCOCC5)oc4c3)=C(C[C@@H](C)C[C@H](OC)[C@H](O)[C@@H](C)/C=C(\C)[C@@H]1OC(N)=O)C2=O	13.9	200	10		
O=c1cc(N2CCOCC2)oc2c1ccc1ccccc12				6	
CO[C@H]1/C=C\C=C(/C)C(=O)NC2=CC(=O)C(NCCCOc3ccc4c(=O)cc(N5CCOCC5)oc4c3)=C(C[C@@H](C)C[C@H](OC)[C@H](O)[C@@H](C)/C=C(\C)[C@@H]1OC(N)=O)C2=O	28	> 500	26		
C=CCNC1=C2C[C@@H](C)C[C@H](OC)[C@H](O)[C@@H](C)/C=C(\C)[C@H](OC(N)=O)[C@@H](OC)/C=C\C=C(/C)C(=O)NC(=CC1=O)C2=O [TANESPIMYCIN]	> 40	> 500			
CO[C@H]1/C=C\C=C(/C)C(=O)NC2=CC(=O)C(NCCOCCOc3ccc4c(=O)cc(N5CCOCC5)oc4c3)=C(C[C@@H](C)C[C@H](OC)[C@H](O)[C@@H](C)/C=C(\C)[C@@H]1OC(N)=O)C2=O	33	85	16		
CO[C@H]1/C=C\C=C(/C)C(=O)NC2=CC(=O)C(NCCCC#Cc3cccc4c(=O)cc(N5CCOCC5)oc34)=C(C[C@@H](C)C[C@H](OC)[C@H](O)[C@@H](C)/C=C(\C)[C@@H]1OC(N)=O)C2=O	13.4	13.5	> 50		

The remaining lines, values ahead:

IC50 [1] [µM]	IC50 [2] [µM]	EC50 [3] [µM]	IC50 [4] [µM]	IC50 [5] [µM]	SMILES
4.3	14	> 50			O=c1cc(N2CCOCC2)oc2ccccc12
1.75	28	28			CO[C@H]1/C=C\C=C(/C)C(=O)NC2=CC(=O)C(NCCCCCCCCOc3ccc4c(=O)cc(N5CCOCC5)oc4c3C)=C(C[C@@H](C)C[C@H](OC)[C@H](O)[C@@H](C)/C=C(\C)[C@@H]1OC(N)=O)C2=O
12.2	70	> 50			CO[C@H]1/C=C\C=C(/C)C(=O)NC2=CC(=O)C(NCCOCCOc3ccc4c(=O)cc(N5CCOCC5)oc4c3C)=C(C[C@@H](C)C[C@H](OC)[C@H](O)[C@@H](C)/C=C(\C)[C@@H]1OC(N)=O)C2=O
10	310	2.5		5	CO[C@H]1/C=C\C=C(/C)C(=O)NC2=CC(=O)C(NCCCCCOc3ccc4c(=O)cc(N5CCOCC5)oc4c3)=C(C[C@@H](C)C[C@H](OC)[C@H](O)[C@@H](C)/C=C(\C)[C@@H]1OC(N)=O)C2=O
6.1	> 500	4			CO[C@H]1/C=C\C=C(/C)C(=O)NC2=CC(=O)C(NCCCCCCOc3ccc4c(=O)cc(N5CCOCC5)oc4c3)=C(C[C@@H](C)C[C@H](OC)[C@H](O)[C@@H](C)/C=C(\C)[C@@H]1OC(N)=O)C2=O
3	3	7			CO[C@H]1/C=C\C=C(/C)C(=O)NC2=CC(=O)C(NCC#Cc3cccc4c(=O)cc(N5CCOCC5)oc34)=C(C[C@@H](C)C[C@H](OC)[C@H](O)[C@@H](C)/C=C(\C)[C@@H]1OC(N)=O)C2=O
3.7	5	46			CO[C@H]1/C=C\C=C(/C)C(=O)NC2=CC(=O)C(NCCCCCCCOc3ccc4c(=O)cc(N5CCOCC5)oc4c3C)=C(C[C@@H](C)C[C@H](OC)[C@H](O)[C@@H](C)/C=C(\C)[C@@H]1OC(N)=O)C2=O
